PMC6271529, “Studies on the Anticonvulsant Activity and Influence on GABA-ergic Neurotransmission of 1,2,4-Triazole-3-thione-Based Compounds” (Molecules, 2014)
Read-outs that look alike come from different tables or passages of the source.

Tests used:
[1] = tested on: threshold for electroconvulsions; parameters: method as in PMID 22732650; settings: cited from earlier work
[2] = tested on: maximal electroshock-induced seizures; experiment: Maximal electroshock-induced seizure (MES) test in mice; assay type: in vivo, mouse; settings: for p/t, number of animals protected against MES-induced seizures / number tested / responders at 300 mg/kg: 300 mg/kg i.p.; for responders at 300 mg/kg / ED50: Mus musculus, ip; for responders at 300 mg/kg: read-out: percent of animals protected against MES-induced seizures; for PI (TD50/ED50): protective index; for onset of action: significant protection as early as 15 min after parenteral administration, MES
Summary of the method: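 Mice given compound i.p. (300 mg/kg screen, then graded doses) 15, 30, 60 or 120 min before ear-clip electroshock (25 mA, 50 Hz, 0.2 s); tonic hind limb extension scored as seizure. ED50 (dose protecting 50% of animals) from Litchfield–Wilcoxon dose-response lines.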

[3] = tested on: benzodiazepine (BDZ)-binding sites; experiment: Radioligand binding assay, [3H]flunitrazepam, rat cerebral cortex; settings: compound 1 × 10^−6 M;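 further: low percentages indicate weak binding of the compound to the site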
Protocol: (§1) Binding experiments were conducted in 96-well microplates in a total volume of 200 μL of appropriate buffer. The reaction mixture included 50 μL solution of test compound, 50 μL of radioligand, and […] the tissue suspension. Rat cerebral cortex was used for each receptor. The radioactivity was measured in MicroBeta TriLux 1450-liquid scintillation counter (PerkinElmer, Waltham, MA, USA). Radioligand binding data were analyzed using iterative curve fitting routines (GraphPAD/Prism, Version 3.0, San Diego, CA, USA). Ki values were calculated from the Cheng and Prusoff equation [36].

GABAA receptors = experiment: Radioligand binding assay, [3H]muscimol, rat cerebral cortex; settings: for Percent of Specific Binding, GABAA: compound 1 × 10^−6 M, [3H]muscimol, rat cerebral cortex; for effect of added compound on affinity of GABA to GABAA receptors: radioligand binding, GABA in combination with compound;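 on Percent of Specific Binding, GABAA: low percentages indicate weak binding of the compound to the receptor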
Protocol: as §1, with “The radioactivity was measured in MicroBeta TriLux 1450-liquid scintillation counter (PerkinElmer, Waltham, MA, USA).” left out

[4] = sub-protective doses of the compound co-administered with valproate; cited from earlier work
[5] = pretreatment time 120 min, mice
[6] = chimney TD50 / MES ED50, pretreatment time 15 min
[7] = chimney TD50 / MES ED50, pretreatment time 30 min
[8] = chimney TD50 / MES ED50, pretreatment time 60 min
[9] = chimney TD50 / MES ED50, pretreatment time 120 min

S=c1[nH]nc(-c2cccc(Cl)c2)n1-c1ccc(Br)cc1 [Compound 6a, 4-(4-Bromophenyl)-5-(3-chlorophenyl)-2,4-dihydro-3H-1,2,4-triazole-3-thione]
elevation of the threshold for electroconvulsions [1]: 70% | p/t, number of animals protected against MES-induced seizures / number tested ([2]; pretreatment time 15 min, mice): 4/8 | p/t, number of animals protected against MES-induced seizures / number tested ([2]; pretreatment time 30 min, mice): 6/8 | p/t, number of animals protected against MES-induced seizures / number tested ([2]; pretreatment time 60 min, mice): 6/8 | p/t, number of animals protected against MES-induced seizures / number tested [2, 5]: 3/8 | anticonvulsant activity (in words) ([2]; MES test, mice): slightly weaker than that of valproate | responders at 300 mg/kg ([2]; 0.25 h, pretreatment time 15 min, mice): 50% | responders at 300 mg/kg ([2]; 0.5 h, pretreatment time 30 min, mice): 75% | responders at 300 mg/kg ([2]; 1 h, pretreatment time 60 min, mice): 75% | responders at 300 mg/kg ([2]; 2 h, pretreatment time 120 min, mice): 37.5% | ED50 ([2]; pretreatment time 15 min, mice, read-out: ED50 ± S.E. (MES test)): 298 ± 21.1 mg/kg | ED50 ([2]; pretreatment time 30 min, mice, read-out: ED50 ± S.E. (MES test)): 218 ± 21.7 mg/kg | ED50 ([2]; pretreatment time 60 min, mice, read-out: ED50 ± S.E. (MES test)): 209 ± 27.3 mg/kg | ED50 ([2]; pretreatment time 120 min, mice, read-out: ED50 ± S.E. (MES test)): 336 ± 14 mg/kg | PI (TD50/ED50) [2, 6]: 1.2 | PI (TD50/ED50) [2, 7]: 1.8 | PI (TD50/ED50) [2, 8]: 1.9 | PI (TD50/ED50) [2, 9]: 1.3 | onset of action ([2]; mice): quick onset of action | Percent of Specific Binding, BDZ [3]: 20% | Percent of Specific Binding, GABAA (GABAA receptors): 17% | effect of added compound on affinity of GABA to GABAA receptors (GABAA receptors): did not lead to an increase

Cc1ccc(-n2c(-c3cccc(Cl)c3)n[nH]c2=S)cc1 [Compound 10a, 5-(3-Chlorophenyl)-4-(4-methylphenyl)-2,4-dihydro-3H-1,2,4-triazole-3-thione]
p/t, number of animals protected against MES-induced seizures / number tested ([2]; pretreatment time 15 min, mice): 8/8 | p/t, number of animals protected against MES-induced seizures / number tested ([2]; pretreatment time 30 min, mice): 8/8 | p/t, number of animals protected against MES-induced seizures / number tested ([2]; pretreatment time 60 min, mice): 8/8 | p/t, number of animals protected against MES-induced seizures / number tested [2, 5]: 6/8 | ED50 ([2]; read-out: ED50 ± S.E. (MES test), i.p., pretreatment time 15 min, mice): 57 ± 9.4 mg/kg | ED50 ([2]; read-out: ED50 ± S.E. (MES test), i.p., pretreatment time 30 min, mice): 74.5 ± 8.1 mg/kg | ED50 ([2]; read-out: ED50 ± S.E. (MES test), i.p., pretreatment time 60 min, mice): 187 ± 18.8 mg/kg | ED50 ([2]; read-out: ED50 ± S.E. (MES test), i.p., pretreatment time 120 min, mice): 281 ± 13.6 mg/kg | PI (TD50/ED50) [2, 6]: 5.9 | PI (TD50/ED50) [2, 7]: 4.5 | PI (TD50/ED50) [2, 8]: 1.8 | PI (TD50/ED50) [2, 9]: 1.4 | onset of action ([2]; mice): quick onset of action | Percent of Specific Binding, BDZ [3]: 9% | elevation of total brain concentration of valproate [4]: 52% | Percent of Specific Binding, GABAA (GABAA receptors): 2% | effect of added compound on affinity of GABA to GABAA receptors (GABAA receptors): did not lead to an increase
